From patent publication US20100314318A1, “HALOGENATED AMIDE BIOCIDAL COMPOUNDS AND METHODS FOR TREATING WATER SYSTEMS AT NEAR NEUTRAL TO HIGH PH” (priority 2009, published 2010) come the findings set out here.

Assay [1] relates to bacteria isolated from Cooling Tower water. Description: Efficacy in sterile artificial Cooling Tower water (approx. pH 8.5). In kind it is cell-based. The settings on record: 30° C.
The test system of assay [2] is Pseudomonas aeruginosa ATCC 10145. Description: Bactericidal efficacy in synthetic salts water pH 8.5. Type of assay: cell-based. The settings on record: for Dosage required for 3 log10 bacterial reduction (ppm, active): 37° C. Here is the method: A sterile synthetic salts water is prepared and inoculated with Pseudomonas aeruginosa ATCC 10145 at about 10^7 CFU/mL. The synthetic water is prepared to contain (in 1 liter deionized water) the following: CaCl2, 0.2203 g; MgSO4, 0.1847 g; and NaHCO3, 0.2033 g. The final pH of the synthetic cooling water is adjusted to 8.5. Aliquots of the cell suspension are then treated with biocides at selected dosage levels. The same contaminated water sample without biocide is used as control. After incubating at 37° C. for different time intervals, numbers of surviving bacteria are enumerated using a serial dilution method. After incubating for 24 hr, all cell suspensions are reinoculated with Pseudomonas aeruginosa ATCC 10145 at 10^6 CFU/mL. The efficacy results for […]

The subject of assay [3] is amoeba (Acanthamoeba polypohaga) fed Legionella pneumophila (AfLp). In kind it is cell-based. The settings on record: Amoeba fed Legionella.
The subject of the next assay is Free Legionella. Type of assay: cell-based, Legionella pneumophila.
The test system of assay [4] is bacteria isolated from field. Briefly: Efficacy in semi-synthetic metal working fluid. Type of assay: cell-based. The settings on record: room temperature, MWF.

Molecules are shown by their SMILES. Where two headings read alike, the source gives them in different places.

On to `CC1(C)C(=O)N(Cl)C(=O)N1Br` [BCDMH, 1-Bromo-3-chloro-5,5-dimethylhydantoin], for which the “Minimum biocide dosage (ppm, active) needed for at least 3 log10 bacterial reduction” value in assay [1] (1 h) is given as 7.0 ppm; in assay [1] (3 h) it was 26.0 ppm; in assay [1] (24 h) it was >70.0 ppm; in assay [1] (48 h, reinoculated), >70.0 ppm; in assay [1] (72 h, reinoculated), >70.0 ppm; in assay [1] (96 h, reinoculated), >70.0 ppm.
As to `N#CC(Br)(Br)C(=O)NCCCO` [DBCHA, 2,2-Dibromo-2-cyano-N-(3-hydroxypropyl)acetamide], the “Dosage required for 3 log10 bacterial reduction (ppm, active)” value came out at 4.4 ppm in assay [2] (1 hr, pH 8.5); 4.4 ppm in assay [2] (3 hr, pH 8.5); 9.9 ppm in assay [2] (24 hr, pH 8.5); 33.3 ppm in assay [2] (48 hr, pH 8.5, reinoculated after 24 hr). The “long term bactericidal efficacy compared with DBNPA” value in assay [2] (after 48 hour incubation and rechallenge with P. aeruginosa cells) was “better long term efficacy than DBNPA”.
Consider `CCCCCCCCCC[N+](C)(C)CCCCCCCCCC.[Cl-]` [DDAC, didecyl dimethyl ammonium chloride], for which the “Active concentration (ppm) required for complete kill (6 log reduction)” value is given as 60 ppm in assay [3] (2 hours), 40 ppm in assay [3] (24 hours), 20 ppm in the assay with Free Legionella (2 hours) and 15 ppm in the assay with Free Legionella (24 hours).
With `CCCCCCCC[N+](C)(C)CCCCCCCC.[Cl-]` [Dioctyl dimethyl ammonium chloride], the “Minimum biocide dosage (ppm, active) needed for at least 3 log10 bacterial reduction” value in assay [1] (1 h) is 29.0 ppm; in assay [1] (3 h), 29.0 ppm; in assay [1] (24 h), 56.0 ppm; in assay [1] (48 h, reinoculated), 56.0 ppm; in assay [1] (72 h, reinoculated) it was 79.0 ppm; in assay [1] (96 h, reinoculated) it was >79.0 ppm.
In the case of `O=CCCCC=O` [Glutaraldehyde], the “Active concentration (ppm) required for complete kill (6 log reduction)” value in assay [3] (2 hours) is listed as 20 ppm; in assay [3] (24 hours) it was 15 ppm; in the assay on Free Legionella (2 hours), 10 ppm; in the assay on Free Legionella (24 hours), 5 ppm. The “Minimum biocide dosage (ppm, active) needed for at least 3 log10 bacterial reduction” value in assay [1] (1 h) came out at 36.0 ppm; in assay [1] (3 h), 26.0 ppm; in assay [1] (24 h), 26.0 ppm; in assay [1] (48 h, reinoculated) it was 51.0 ppm; in assay [1] (72 h, reinoculated), 51.0 ppm; in assay [1] (96 h, reinoculated) it was 71.0 ppm.
For the molecule `CCN1CN(CC)CN(CC)C1` [Triazine, 1,3,5-triethylhexahydro-1,3,5-triazine], the “Minimum dosage (ppm, active) required for at least 3 log10 reduction in bacterial counts” value in assay [4] (2 h) is 1934 ppm; in assay [4] (4 h), 1487 ppm; in assay [4] (24 h), 1144 ppm; in assay [4] (48 h) it was 1144 ppm; in assay [4] (72 h) it was 1144 ppm; in assay [4] (96 h) it was 1144 ppm.
